Measured values: patent US9834566B2, “Pyrazolopyrimidine macrocycles as inhibitors of human immunodeficiency virus replication” (priority 2014, dated 2017)

The compounds below were run on recombinant NL-RLuc virus (NL4-3 with Renilla Luciferase gene) (assay: Inhibition of HIV replication (NL-RLuc luciferase reporter virus in MT-2 cells)). Conditions: NL43, 120 h.
Format: cell-based
Text: Inhibition of HIV Replication:
A recombinant NL-RLuc proviral clone was constructed in which a section of the nef gene from NL4-3 was replaced with the Renilla Luciferase gene. This virus is fully infectious and can undergo multiple cycles of replication in cell culture. In addition, the luciferous reporter provides a simple and easy method for quantitating the extent of virus growth and consequently, the antiviral activity of test compounds. The plasmid pNLRLuc contains the proviral NL-Rluc DNA cloned into pUC18 at the PvuII site. The NL-RLuc virus was prepared by transfection of 293T cells with the plasmid pNLRLuc. Transfections were performed using the LipofectAMINE PLUS kit from Invitrogen (Carlsbad, Calif.) according to the manufacturer and the virus generated was titered in MT-2 cells. For susceptibility analyses, the titrated virus was used to infect MT-2 cells in the presence of compound, and after 5 days of incubation, cells were processed and quantitated for virus growth by the amount of expressed luciferase. Assay media was RPMI 1640 supplemented with 10% heat inactivated fetal bovine serum (FBS), 100 units/ml penicillin G/100 units/ml streptomycin, 10 mM HEPES buffer pH 7.55 and 2 mM L-glutamine. The results from at least 2 experiments were used to calculate the EC50 values. Luciferase was quantitated using the Dual Luciferase kit from Promega (Madison, Wis.). Susceptibility of viruses to compounds was determined by incubation in the presence of serial dilutions of the compound. The 50% effective concentration (EC50) was calculated by using the exponential form of the median effect equation where (Fa)=1/[1+(ED50/drug conc.)^m] (Johnson V A, Byington R T. Infectivity Assay. In Techniques in HIV Research. ed. Aldovini A, Walker B D. 71-76. New York: Stockton Press. 1990).
For `Cc1nc2cc3nn2c(c1[C@H](OC(C)(C)C)C(=O)O)-c1ccc(cc1)OCCCCCCOc1cc(F)ccc1-c1cccc-3c1` [Example 1, (2S)-2-(tert-butoxy)-2-{18-fluoro-4-methyl-21,28-dioxa-5,7,8-triazahexacyclo [27.2.2.1^6,^9.1^10,^14.0^2,^7.0^15,^20]pentatriaconta-1(31),2,4,6(35),8,10(34),11,13, 15(20),16,18,29,32-tridecaen-3-yl}acetic acid], the EC50 was 397 nM.
`Cc1nc2cc3nn2c(c1[C@H](OC(C)(C)C)C(=O)O)-c1ccc(cc1)OC/C=C/COc1cc(F)ccc1-c1cccc-3c1` [Example 2, (2S)-2-(tert-butoxy)-2-[(23E)-18-fluoro-4-methyl-21,26-dioxa-5,7,8-triazahexacyclo [25.2.2.1^6,^9.1^10,^14.0^2,^7.0^15,^20]tritriaconta-1(29),2,4,6(33),8,10(32),11,13, 15(20),16,18,23,27,30-tetradecaen-3-yl]acetic acid] gave an EC50 of 696 nM.
`Cc1nc2cc3nn2c(c1[C@H](OC(C)(C)C)C(=O)O)-c1ccc(cc1)OCc1cccc(c1)COc1cc(F)ccc1-c1cccc-3c1` [Example 3, (2S)-2-(tert-butoxy)-2-{18-fluoro-4-methyl-21,29-dioxa-5,7,8-triazaheptacyclo [28.2.2.1^6,^9.1^10,^14.1^23,^27.0^2,^7.0^15,^20]heptatriaconta-1(32),2,4,6(37),8,10(36),11,13, 15(20),16,18,23(35),24,26,30,33-hexadecaen-3-yl}acetic acid] gave an EC50 of 55 nM.
With `Cc1nc2cc3nn2c(c1[C@H](OC(C)(C)C)C(=O)O)-c1ccc(cc1)OCC#CCOc1cc(F)ccc1-c1cccc-3c1` [Example 4, (2S)-2-(tert-butoxy)-2-{18-fluoro-4-methyl-21,26-dioxa-5,7,8-triazahexacyclo [25.2.2.1^6,^9.1^10,^14.0^2,^7.0^15,^20]tritriaconta-1(29),2,4,6(33),8,10(32),11,13, 15(20),16,18,27,30-tridecaen-23-yn-3-yl}acetic acid] the EC50 was 281 nM.
For `Cc1nc2cc3nn2c(c1[C@H](OC(C)(C)C)C(=O)O)-c1ccc(cc1)OCCOCCOc1cc(F)ccc1-c1cccc-3c1` [Example 5, (2S)-2-(tert-butoxy)-2-{18-fluoro-4-methyl-21,24,27-trioxa-5,7,8-triazahexacyclo [26.2.2.1^6,^9.1^10,^14.0^2,^7.0^15,^20]tetratriaconta-1(30),2,4,6(34),8,10(33),11,13, 15(20),16,18,28,31-tridecaen-3-yl}acetic acid], the EC50 was 309 nM.
With `Cc1nc2cc3nn2c(c1[C@H](OC(C)(C)C)C(=O)O)-c1ccc(c2ccccc12)OCc1cccc(c1)COc1cc(F)ccc1-c1cccc-3c1` [Example 6, (2S)-2-(tert-butoxy)-2-{18-fluoro-4-methyl-21,29-dioxa-5,7,8-triazaoctacyclo[28.6.2.1^6,9.1^10,14. 1^23,27.0^2,7.0^15,20.0^31,36]hentetraconta-1(37),2,4,6(41),8,10(40),11,13,15(20),16,18,23(39),24,26,30(38),31(36),32,34-octadecaen-3-yl}acetic acid] the EC50 was 20000 nM.
Compound `Cc1nc2cc3nn2c(c1[C@H](OC(C)(C)C)C(=O)O)-c1ccc(c2ccccc12)OCC#CCOc1cc(F)ccc1-c1cccc-3c1` [Example 7, (2S)-2-(tert-butoxy)-2-{18-fluoro-4-methyl-21,26-dioxa-5,7,8-triazaheptacyclo[25.6.2.1^6,9.1^10,14.0^2,7.0^15,20.0^28,33]heptatriaconta-1(34),2,4,6(37),8,10(36),11,13,15(20),16,18,27(35),28 (33),29,31-pentadecaen-23-yn-3-yl}acetic acid] has an EC50 of 12100 nM.
`C=C1COc2cc(ccc2C)-c2c([C@H](OC(C)(C)C)C(=O)O)c(C)nc3cc(nn23)-c2cccc(c2)-c2ccc(F)cc2OC1` [Example 8, (2S)-2-(tert-Butoxy)-2-{22-fluoro-7,13-dimethyl-17-methylidene-15,19-dioxa-3,4,6-triazahexacyclo [24.3.1.1^2,^5.1^10,^14.0^4,^9.0^20,^25]dotriaconta-1(30),2,5(32),6,8,10,12,14(31), 20(25),21,23,26,28-tridecaen-8-yl}acetic acid] gave an EC50 of 784 nM.
For `Cc1ccc2cc1OC/C=C/COc1cc(F)ccc1-c1cccc(c1)-c1cc3nc(C)c([C@H](OC(C)(C)C)C(=O)O)c-2n3n1` [Example 9, (2S)-2-(tert-Butoxy)-2-[(17E)-23-fluoro-7,13-dimethyl-15,20-dioxa-3,4,6-triazahexacyclo [25.3.1.1^2,^5.1^10,^14.0^4,^9.0^21,^26]tritriaconta-1(31),2,5(33),6,8,10,12,14(32), 17,21(26),22,24,27,29-tetradecaen-8-yl]acetic acid], the EC50 was 489 nM.
In the case of `Cc1ccc2cc1OCc1cccc(n1)COc1cc(F)ccc1-c1cccc(c1)-c1cc3nc(C)c([C@H](OC(C)(C)C)C(=O)O)c-2n3n1` [Example 10, (2S)-2-(tert-Butoxy)-2-{26-fluoro-7,13-dimethyl-15,23-dioxa-3,4,6,35-tetraazaheptacyclo [28.3.1.1^2,^5.1^10,^14.0^17,^21.0^4,^9.0^24,^29]heptatriaconta-1(34),2,5(37),6,8,10,12,14(36), 17(35),18,20,24(29),25,27,30,32-hexadecaen-8-yl}acetic acid], the EC50 is reported as 4200 nM.
`Cc1ccc2cc1OC/C=C\COc1cc(F)ccc1-c1cccc(c1)-c1cc3nc(C)c([C@H](OC(C)(C)C)C(=O)O)c-2n3n1` [Example 11, (2S)-2-(tert-Butoxy)-2-[(17Z)-23-fluoro-7,13-dimethyl-15,20-dioxa-3,4,6-triazahexacyclo [25.3.1.1^2,^5.1^10,^14.0^4,^9.0^21,^26]tritriaconta-1(31),2,5(33),6,8,10,12,14(32), 17,21(26),22,24,27,29-tetradecaen-8-yl]acetic acid] was tested, and the EC50 was 3310 nM.
For `Cc1ccc2cc1OCCC(F)(F)C(F)(F)CCOc1cc(F)ccc1-c1cccc(c1)-c1cc3nc(C)c([C@H](OC(C)(C)C)C(=O)O)c-2n3n1` [Example 12, (2S)-2-(tert-Butoxy)-2-{18,18,19,19,25-pentafluoro-7,13-dimethyl-15,22-dioxa-3,4,6-triazahexacyclo [27.3.1.1^2,^5.1^10,^14.0^4,^9.0^23,^28]pentatriaconta-1(33),2,5(35),6,8,10,12,14(34), 23(28),24,26,29,31-tridecaen-8-yl}acetic acid], the EC50 was 1670 nM.
For `Cc1ccc2cc1OCC#CCOc1cc(F)ccc1-c1cccc(c1)-c1cc3nc(C)c([C@H](OC(C)(C)C)C(=O)O)c-2n3n1` [Example 13, (2S)-2-(tert-Butoxy)-2-{23-fluoro-7,13-dimethyl-15,20-dioxa-3,4,6-triazahexacyclo [25.3.1.1^2,^5.1^10,^14.0^4,^9.0^21,^26]tritriaconta-1(31),2,5(33),6,8,10,12,14(32), 21(26),22,24,27,29-tridecaen-17-yn-8-yl}acetic acid], the EC50 was 288 nM.
`Cc1ccc2cc1OCCN(C(C)(C)C)CCOc1cc(F)ccc1-c1cccc(c1)-c1cc3nc(C)c([C@H](OC(C)(C)C)C(=O)O)c-2n3n1` [Example 14, (2S)-2-(tert-Butoxy)-2-{18-tert-butyl-24-fluoro-7,13-dimethyl-15,21-dioxa-3,4,6,18-tetraazahexacyclo [26.3.1.1^2,^5.1^10,^14.0^4,^9.0^22,^27]tetratriaconta-1(32),2,5(34),6,8,10,12,14(33), 22(27),23,25,28,30-tridecaen-8-yl}acetic acid] was tested, and the EC50 was 3250 nM.
